Experimental data published in patent US12662469B2 (SIRONAX LTD, priority 2018, dated 2026).

system: Cell Necrosis; experiment: Cell necrosis assay / cell viability assay (necrosis inhibitor activity); assay type: cell-based; conditions: not given

Q: How did the “activity based on the cell activity assay” value turn out when O=C1COc2cc(F)c(OC3CN(C(=O)N4N=CC[C@H]4c4ccccc4)C3)cc2N1 [Compound 192, (S)-7-fluoro-6-((1-(5-phenyl-4,5-dihydro-1H-pyrazole-1-carbonyl)azetidin-3-yl)oxy)-2H-benzo[b][1,4]oxazin-3(4H)-one] was run?
A: The value was “potent activity”.

same assay, conditions: necrosis inhibitor activity; EC data for 14-191 extrapolated; read-out: EC50

Q: Which EC50 does the source give for O=C(N1CC(Cc2cccc(O)c2)C1)N1N=CCC1c1ccccc1 (stereo not drawn) [Compound 44, (3-(3-hydroxybenzyl)azetidin-1-yl)(5-phenyl-4,5-dihydro-1H-pyrazol-1-yl)methanone] here?
A: Its EC50 is 1000 to 10000 nM.

Q: For O=C(N1CC(Cc2ccc(Cl)cc2)C1)N1N=CCC1c1ccccc1 (stereo not drawn) [Compound 49, (3-(4-chlorobenzyl)azetidin-1-yl)(5-phenyl-4,5-dihydro-1H-pyrazol-1-yl)methanone], which EC50 is on record?
A: Its EC50 is 1 to 1000 nM.

Q: Which EC50 does the source give for O=C(NC1CCN(c2ccc(F)cn2)C1)N1N=CCC1c1ccccc1 (stereo not drawn) [Compound 23, N-(1-(5-fluoropyridin-2-yl)pyrrolidin-3-yl)-5-phenyl-4,5-dihydro-1H-pyrazole-1-carboxamide] here?
A: The EC50 was 1 to 1000 nM.

Q: C[C@H]1CN(c2ncc(Cl)cn2)CCN1C(=O)N1N=CCC1c1ccccc1 (stereo partly drawn) [Compound 113A, ((S)-4-(5-chloropyrimidin-2-yl)-2-methylpiperazin-1-yl)(5-phenyl-4,5-dihydro-1H-pyrazol-1-yl)methanone] was tested. Which EC50 did it give?
A: Its EC50 is 1 to 1000 nM.

Q: How did the EC50 turn out when O=C(N[C@H]1CC[C@H](Oc2ccccc2)C1)N1N=CCC1c1ccccc1 (stereo partly drawn) [Compound 25, N-((1S,3S)-3-phenoxycyclopentyl)-5-phenyl-4,5-dihydro-1H-pyrazole-1-carboxamide] was run?
A: Its EC50 is 1000 to 10000 nM.

Q: With CNC(=O)c1c(F)cc(OC2CN(C(=O)N3N=CCC3c3cc(F)cc(F)c3)C2)cc1F (stereo not drawn) [Compound 160] as the compound, how does the EC50 read?
A: The EC50 was 1 to 1000 nM.

Q: COc1cccc(C=C2CN(C(=O)N3N=CCC3c3ccccc3)C2)c1 (stereo not drawn) [Compound 43, (3-(3-methoxybenzylidene)azetidin-1-yl)(5-phenyl-4,5-dihydro-1H-pyrazol-1-yl)methanone] was tested. Which EC50 did it give?
A: The EC50 was 1 to 1000 nM.

Q: For O=C(N1CC(=Cc2ccc(F)cc2F)C1)N1N=CCC1c1cc(F)cc(F)c1 (stereo not drawn) [Compound 55, (3-(2,4-difluorobenzylidene)azetidin-1-yl)(5-(3,5-difluorophenyl)-4,5-dihydro-1H-pyrazol-1-yl)methanone], which EC50 is on record?
A: Its EC50 is 1 to 1000 nM.

Q: Which EC50 does the source give for O=C(N1CC(Oc2ccccc2Cl)C1)N1N=CCC1c1ccccc1 (stereo not drawn) [Compound 64, (3-(2-chlorophenoxy)azetidin-1-yl)(5-phenyl-4,5-dihydro-1H-pyrazol-1-yl)methanone] here?
A: The EC50 was 1 to 1000 nM.

Q: O=C(N1CC(Oc2nc3[nH]c(=O)ccc3s2)C1)N1N=CCC1c1cc(F)cc(F)c1 (stereo not drawn) [Compound 179] was tested. Which EC50 did it give?
A: The EC50 was 1 to 1000 nM.

Q: O=C(N1CC(Cc2ccccc2F)C1)N1N=CCC1c1ccccc1 (stereo not drawn) [Compound 40, (3-(2-fluorobenzyl)azetidin-1-yl)(5-phenyl-4,5-dihydro-1H-pyrazol-1-yl)methanone] was tested. Which EC50 did it give?
A: The EC50 was 1 to 1000 nM.

Q: C[C@@H]1CN(c2ncc(F)cn2)CCN1C(=O)N1N=CCC1c1ccccc1 (stereo partly drawn) [Compound 114A, ((R)-4-(5-fluoropyrimidin-2-yl)-2-methylpiperazin-1-yl)(5-phenyl-4,5-dihydro-1H-pyrazol-1-yl)methanone] was tested. Which EC50 did it give?
A: Its EC50 is 1 to 1000 nM.

Q: Cc1csc(N2CCN(C(=O)N3N=CCC3c3ccccc3)CC2)n1 (stereo not drawn) [Compound 105, (4-(4-methylthiazol-2-yl)piperazin-1-yl)(5-phenyl-4,5-dihydro-1H-pyrazol-1-yl)methanone] was tested. Which EC50 did it give?
A: Its EC50 is 1000 to 10000 nM.

Q: How did the EC50 turn out when CNC(=O)c1csc(OC2CN(C(=O)N3N=CCC3c3cc(F)cc(F)c3)C2)n1 (stereo not drawn) [Compound 171] was run?
A: Its EC50 is 1 to 1000 nM.

same assay, conditions: necrosis inhibitor activity; compounds outside 14-191; read-out: EC50

Q: O=C(Nc1nccc(O[C@@H]2CCN(C(=O)N3N=CC[C@H]3c3cc(F)cc(F)c3)C2)n1)C1CC1 [Compound 369, N-(4-(((R)-1-((S)-5-(3,5-difluorophenyl)-4,5-dihydro-1H-pyrazole-1-carbonyl)pyrrolidin-3-yl)oxy)pyrimidin-2-yl)cyclopropanecarboxamide] was tested. Which EC50 did it give?
A: Its EC50 is 1 to 1000 nM.

Q: For O=C(N1CC(=Cc2cc(F)ncc2F)C1)N1N=CC[C@H]1c1cc(F)cc(F)c1 [Compound 329], which EC50 is on record?
A: Its EC50 is 1 to 1000 nM.

Q: NC(=O)c1cnc2ccc(O[C@@H]3CCN(C(=O)N4N=CC[C@H]4c4cc(F)cc(F)c4)C3)nn12 [Compound 241, 6-(((R)-1-((S)-5-(3,5-difluorophenyl)-4,5-dihydro-1H-pyrazole-1-carbonyl)pyrrolidin-3-yl)oxy)imidazo[1,2-b]pyridazine-3-carboxamide] was tested. Which EC50 did it give?
A: The EC50 was 1 to 1000 nM.

Q: Which EC50 does the source give for O=C(N1CC(=Cc2ccc(F)nc2)C1)N1N=CCC1c1cc(F)cc(F)c1 (stereo not drawn) [Compound 305, (5-(3,5-difluorophenyl)-4,5-dihydro-1H-pyrazol-1-yl)(3-((6-fluoropyridin-3-yl)methylene)azetidin-1-yl)methanone] here?
A: Its EC50 is 1 to 1000 nM.

Q: For N#Cc1cnc(N2CCN(C(=O)N3N=CC[C@H]3c3cc(F)cc(F)c3)CC2)nc1 [Compound 385, (S)-2-(4-(5-(3,5-difluorophenyl)-4,5-dihydro-1H-pyrazole-1-carbonyl)piperazin-1-yl)pyrimidine-5-carbonitrile], which EC50 is on record?
A: Its EC50 is 1 to 1000 nM.

Q: How did the EC50 turn out when O=C(N1CCN(c2ncc(F)c(OCCN3CCOCC3)n2)CC1)N1N=CC[C@H]1c1cc(F)cc(F)c1 [Compound 287, (S)-(5-(3,5-difluorophenyl)-4,5-dihydro-H-pyrazol-1-yl)(4-(5-fluoro-4-(2-morpholinoethoxy)pyrimidin-2-yl)piperazin-1-yl)methanone] was run?
A: Its EC50 is 1 to 1000 nM.

Q: With O=C(N1CC(Oc2ccc3cc[nH]c3c2)C1)N1N=CC[C@H]1c1cc(F)cc(F)c1 [Compound 223, (S)-(3-((1H-indol-6-yl)oxy)azetidin-1-yl)(5-(3,5-difluorophenyl)-4,5-dihydro-1H-pyrazol-1-yl)methanone] as the compound, how does the EC50 read?
A: The EC50 was 1 to 1000 nM.

Q: How did the EC50 turn out when O=C1COc2cc(F)c(OC3CN(C(=O)N4N=CC[C@H]4c4cncc(F)c4)C3)cc2N1 [Compound 194, (S)-7-fluoro-6-((1-(5-(5-fluoropyridin-3-yl)-4,5-dihydro-1H-pyrazole-1-carbonyl)azetidin-3-yl)oxy)-2H-benzo[b][1,4]oxazin-3(4H)-one] was run?
A: Its EC50 is 1 to 1000 nM.

Q: Which EC50 does the source give for CN1C(=O)C(CCO)Oc2cc(F)c(OC3CN(C(=O)N4N=CC[C@H]4c4cc(F)cc(F)c4)C3)cc21 (stereo partly drawn) [Compound 248, 6-((1-((S)-5-(3,5-difluorophenyl)-4,5-dihydro-1H-pyrazole-1-carbonyl)azetidin-3-yl)oxy)-7-fluoro-2-(2-hydroxyethyl)-4-methyl-2H-benzo[b][1,4]oxazin-3(4H)-one] here?
A: Its EC50 is 1 to 1000 nM.

Q: NC(=O)c1cc(OC2CN(C(=O)N3N=CC[C@H]3c3cc(F)cc(F)c3)C2)ccc1F [Compound 220] was tested. Which EC50 did it give?
A: Its EC50 is 1 to 1000 nM.

Q: With O=C(N1CC(=Cc2ccc3c(c2)NC(=O)C3(F)F)C1)N1N=CC[C@H]1c1cc(F)cc(F)c1 [Compound 283, (S)-6-((1-(5-(3,5-difluorophenyl)-4,5-dihydro-1H-pyrazole-1-carbonyl)azetidin-3-ylidene)methyl)-3,3-difluoroindolin-2-one] as the compound, how does the EC50 read?
A: The EC50 was 1 to 1000 nM.

Q: With O=C(N1CCCC1)N1N=CCC1c1ccccc1 (stereo not drawn) [Compound 6, (5-phenyl-4,5-dihydro-1H-pyrazol-1-yl)(pyrrolidin-1-yl)methanone] as the compound, how does the EC50 read?
A: Its EC50 is 1 to 1000 nM.

Q: For NC(=O)CC[C@@H]1Oc2cc(F)c(OC3CN(C(=O)N4N=CC[C@H]4c4cc(F)cc(F)c4)C3)cc2NC1=O [Compound 245, 3-((S)-6-((1-((S)-5-(3,5-difluorophenyl)-4,5-dihydro-1H-pyrazole-1-carbonyl)azetidin-3-yl)oxy)-7-fluoro-3-oxo-3,4-dihydro-2H-benzo[b][1,4]oxazin-2-yl)propanamide], which EC50 is on record?
A: The EC50 was 1 to 1000 nM.

Q: With CC1Oc2ccc(OC3CN(C(=O)N4N=CC[C@H]4c4cc(F)cc(F)c4)C3)cc2NC1=O (stereo partly drawn) [Compound 349, 6-((1-((S)-5-(3,5-difluorophenyl)-4,5-dihydro-1H-pyrazole-1-carbonyl)azetidin-3-yl)oxy)-2-methyl-2H-benzo[b][1,4]oxazin-3(4H)-one] as the compound, how does the EC50 read?
A: Its EC50 is 1 to 1000 nM.

Q: N#Cc1cccc(O[C@@H]2CCN(C(=O)N3N=CC[C@H]3c3cc(F)cc(F)c3)C2)n1 [Compound 337, 6-(((R)-1-((S)-5-(3,5-difluorophenyl)-4,5-dihydro-1H-pyrazole-1-carbonyl)pyrrolidin-3-yl)oxy)picolinonitrile] was tested. Which EC50 did it give?
A: The EC50 was 1 to 1000 nM.

Q: For O=C(N1CC(=Cc2ccc3[nH]cnc3c2)C1)N1N=CC[C@H]1c1cc(F)cc(F)c1 [Compound 284], which EC50 is on record?
A: Its EC50 is 1 to 1000 nM.

Q: How did the EC50 turn out when O=C(N1CC[C@@H](Oc2ccnc3ccnn23)C1)N1N=CC[C@H]1c1cc(F)cc(F)c1 [Compound 242, ((S)-5-(3,5-difluorophenyl)-4,5-dihydro-1H-pyrazol-1-yl)((R)-3-(pyrazolo[1,5-a]pyrimidin-7-yloxy)pyrrolidin-1-yl)methanone] was run?
A: The EC50 was 1 to 1000 nM.

Q: With O=C1COc2cc(F)c(OC3CN(C(=O)N4N=CC[C@H]4c4ccccc4)C3)cc2N1 [Compound 192, (S)-7-fluoro-6-((1-(5-phenyl-4,5-dihydro-1H-pyrazole-1-carbonyl)azetidin-3-yl)oxy)-2H-benzo[b][1,4]oxazin-3(4H)-one] as the compound, how does the EC50 read?
A: Its EC50 is 1 to 1000 nM.

Q: With O=C(Nc1nc(N2CCN(C(=O)N3N=CC[C@H]3c3cc(F)cc(F)c3)CC2)ncc1F)C1CCCC1 [Compound 325, (S)—N-(2-(4-(5-(3,5-difluorophenyl)-4,5-dihydro-1H-pyrazole-1-carbonyl)piperazin-1-yl)-5-fluoropyrimidin-4-yl)cyclopentanecarboxamide] as the compound, how does the EC50 read?
A: The EC50 was 1 to 1000 nM.

Q: N#Cc1ccc(O[C@@H]2CCN(C(=O)N3N=CC[C@H]3c3cc(F)cc(F)c3)C2)cc1 [Compound 343, 4-(((R)-1-((S)-5-(3,5-difluorophenyl)-4,5-dihydro-1H-pyrazole-1-carbonyl)pyrrolidin-3-yl)oxy)benzonitrile] was tested. Which EC50 did it give?
A: The EC50 was 1 to 1000 nM.

Q: With O=C(N1CC2(CCC2)C1)N1N=CCC1c1ccccc1 (stereo not drawn) [Compound 3, (5-phenyl-4,5-dihydro-1H-pyrazol-1-yl)(2-azaspiro[3.3]heptan-2-yl)methanone] as the compound, how does the EC50 read?
A: Its EC50 is 1 to 1000 nM.

Q: For O=C1COc2cccc(O[C@@H]3CCN(C(=O)N4N=CC[C@H]4c4cc(F)cc(F)c4)C3)c2N1 [Compound 243, 5-(((R)-1-((S)-5-(3,5-difluorophenyl)-4,5-dihydro-1H-pyrazole-1-carbonyl)pyrrolidin-3-yl)oxy)-2H-benzo[b][1,4]oxazin-3(4H)-one], which EC50 is on record?
A: Its EC50 is 1 to 1000 nM.

Q: With N#Cc1nccc(O[C@@H]2CCN(C(=O)N3N=CC[C@H]3c3cc(F)cc(F)c3)C2)n1 [Compound 362, 4-(((R)-1-((S)-5-(3,5-difluorophenyl)-4,5-dihydro-1H-pyrazole-1-carbonyl)pyrrolidin-3-yl)oxy)pyrimidine-2-carbonitrile] as the compound, how does the EC50 read?
A: Its EC50 is 1 to 1000 nM.

Q: With CCC1Oc2cc(F)c(OC3CN(C(=O)N4N=CC[C@H]4c4cc(F)cc(F)c4)C3)cc2NC1=O (stereo partly drawn) [Compound 250, 6-((1-((S)-5-(3,5-difluorophenyl)-4,5-dihydro-1H-pyrazole-1-carbonyl)azetidin-3-yl)oxy)-2-ethyl-7-fluoro-2H-benzo[b][1,4]oxazin-3(4H)-one] as the compound, how does the EC50 read?
A: The EC50 was 1 to 1000 nM.
